Measured values published in patent US20250034170A1, “SMALL MOLECULE MODULATORS OF GLUCOCEREBROSIDASE ACTIVITY AND USES THEREOF” (Vanqua Bio, Inc., priority 2021, published 2025).

Molecular target: T1, GCase (Homo sapiens, UniProt P04062)
T1 construct: endogenous in cells; host or cells: HeLa cells
T1 sequence (P04062 40-536): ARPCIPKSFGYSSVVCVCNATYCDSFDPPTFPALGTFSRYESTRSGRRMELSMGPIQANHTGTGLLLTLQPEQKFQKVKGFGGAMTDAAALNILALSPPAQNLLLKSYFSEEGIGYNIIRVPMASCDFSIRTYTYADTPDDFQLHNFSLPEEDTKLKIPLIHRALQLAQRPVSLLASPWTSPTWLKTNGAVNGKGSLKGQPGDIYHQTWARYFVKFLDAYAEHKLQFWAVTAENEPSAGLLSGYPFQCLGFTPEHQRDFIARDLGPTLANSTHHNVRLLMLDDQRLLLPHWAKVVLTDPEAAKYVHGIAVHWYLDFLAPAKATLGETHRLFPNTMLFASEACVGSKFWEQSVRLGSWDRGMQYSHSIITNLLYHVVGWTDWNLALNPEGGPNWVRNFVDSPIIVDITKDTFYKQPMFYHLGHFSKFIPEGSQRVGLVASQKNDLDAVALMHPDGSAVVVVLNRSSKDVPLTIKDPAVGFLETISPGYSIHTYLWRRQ
Assay: activation of GCase in a live cell PFB assay in HELA cells
Format: cell-based
Description: Exemplary compounds were evaluated for activation of GCase in a live cell PFB assay in HELA cells (essentially as described in Ysselstein et al., “LRRK2 kinase activity regulates lysosomal glucocerebrosidase in neurons derived from Parkinson's disease patients” Nature Communications (2019) 10:5570). […] EC50 ranges: A: <10 μM; B: >10-50 μM; C: >50-100 μM; D: >100 μM.

[1] = activation of GCase, EC50 ranges

SMILES	EC50 [1] [µM]	EC50 (EC50 given as range classes) [µM]
FC(F)Cn1ncc2ncc(N3CCC4(CCC(Oc5ccnc(C(F)(F)F)c5)C4)CC3)nc21 (centres unmarked) [Cmpd 690]	< 10	–
FC(F)Cn1ncc2ncc(N3CCCC4(CN(c5ccc(C(F)(F)F)cn5)C4)C3)nc21 [Compound 41, 6-[1-(2,2-difluoroethyl)-1H-pyrazolo[3,4-b]pyrazin-6-yl]-2-[5-(trifluoromethyl)pyridin-2-yl]-2,6-diazaspiro[3.5]nonane]	50 to 100	–
Fc1ccc(F)c(OC2CC3(CCCN(c4cnc5cnn(CC(F)F)c5n4)C3)C2)c1 (centres unmarked) [Compound 24, 6-[1-(2,2-difluoroethyl)-1H-pyrazolo[3,4-b]pyrazin-6-yl]-2-(2,5-difluorophenoxy)-6-azaspiro[3.5]nonane]	10 to 50	–
Cc1nc(N2CCC3(C2)CN(c2ncc4cnn(CC(F)F)c4n2)C3)cc(C(F)(F)F)n1 [Cmpd 553]	10 to 50	–
O=C1N(c2cc(C(F)(F)F)ccn2)CCC12CCN(c1cncc(-c3nncs3)n1)CC2 [Compound 169, 8-[6-(1,3,4-thiadiazol-2-yl)pyrazin-2-yl]-2-[4-(trifluoromethyl)pyridin-2-yl]-2,8-diazaspiro[4.5]decan-1-one]	< 10	–
O=C1N(Cc2ccc(C(F)(F)F)nc2)CCC12CCN(c1cnc3cnn(CC(F)F)c3n1)CC2 [Cmpd 308]	10 to 50	–
Cc1nc(N2CC[C@@]3(CCN(c4cnc5c(C)nn(C6COC6)c5n4)C3)C2)cc(C(F)(F)F)n1 [Cmpd 1123]	10 to 50	–
O=C(c1ccccc1Cl)N1CC2(CCN(c3cnc4cnn(CC(F)F)c4n3)C2)C1 [Cmpd 383]	–	< 10
Cc1nc(N2CC3(CCN(c4cc5c(cn4)cnn5CC(F)F)CC3)CC2=O)cc(C(F)(F)F)n1 [Cmpd 634]	< 10	–
Cc1nc(N2CCC3(CCN(c4cncc(-c5nncs5)n4)C3)C2)cc(C(F)(F)F)n1 (centres unmarked) [Cmpd 539]	10 to 50	–
Cc1nc(N2CC3(CCN(c4cnc5cnn(C6COC6)c5n4)C3)C2)cc(C(F)(F)F)n1 [Cmpd 1063]	10 to 50	–
FC(F)Cn1ncc2ncc(N3CCC4(CCN(c5ccnc(C(F)(F)F)n5)C4)CC3)nc21 [Cmpd 737]	< 10	–
FC(F)Cn1ncc2ncc(N3CC4(CCN(c5ccc(C(F)(F)F)nc5)CC4)C3)nc21 [Compound 127, 2-[1-(2,2-difluoroethyl)-1H-pyrazolo[3,4-b]pyrazin-6-yl]-7-[6-(trifluoromethyl)pyridin-3-yl]-2,7-diazaspiro[3.5]nonane]	< 10	–
Cc1nc(N2CCC3(CCN(c4ncc5cnn(C6COC6)c5n4)C3)C2)cc(C(F)(F)F)n1 (centres unmarked) [Cmpd 545]	> 100	–
Cn1c(=O)n(CC(F)F)c2nc(N3CCC4(CN(c5ccnc(C(F)(F)F)c5)C4)C3)cnc21 [Cmpd 977]	10 to 50	–
Cc1nc(N2CCC3(CCN(c4ncc5c(C)nn(C6COC6)c5n4)CC3)C2)cc(C(F)(F)F)n1 [Cmpd 550]	> 100	–
CC1N(c2cc(C(F)(F)F)ccn2)CCC12CCN(c1cnc3cnn(CC(F)F)c3n1)CC2 (centres unmarked) [Cmpd 747]	10 to 50	–
Cc1ncc(N2CC3(CCN(c4ncc5cnn(CC(F)(F)F)c5n4)C3)C2)c(C(F)(F)F)n1 [Cmpd 596]	–	< 10
FC(F)Cn1ncc2ncc(N3CCCC4(C3)CN(c3ncccc3C(F)(F)F)C4)nc21 [Compound 18, 6-[1-(2,2-difluoroethyl)-1H-pyrazolo[3,4-b]pyrazin-6-yl]-2-[3-(trifluoromethyl)pyridine-2-yl]-2,6-diazaspiro[3.5]nonane]	10 to 50	–
CCOc1nn(CC(F)F)c2nc(N3CCC4(CC3)CC(=O)N(c3ccnc(C(F)(F)F)c3)C4)cnc12 [Cmpd 941]	< 10	–
CCn1nc(N2CCC3(CCN(c4cnc5cnn(CC(F)F)c5n4)CC3)C2=O)ccc1=O [Cmpd 847]	10 to 50	–
FC(F)Cn1ncc2ncc(N3CCC4(CC3)CC(Oc3cccnc3C(F)(F)F)C4)nc21 [Compound 88, 7-[1-(2,2-difluoroethyl)-1H-pyrazolo[3,4-b]pyrazin-6-yl]-2-{[2-(trifluoromethyl)pyridin-3-yl]oxy}-7-azaspiro[3.5]nonane]	< 10	–
FC(F)Cn1ncc2ncc(NC3CCC4(CC3)CN(c3ccc(C(F)(F)F)nc3)C4)nc21 [Cmpd 200]	–	10 to 50
